Reference: ChEMBL document CHEMBL3881530, “Compounds and methods for inhibiting NHE-mediated antiport in the treatment of disorders associated with fluid retention or salt overload and gastrointestinal tract disorders” (2013)

Legend:
Rattus norvegicus [1] = test: Effect on fecal water content in Sprague-Dawley rat at 3 mg/kg administered via oral gavage measured after 16 hrs relative to control; assay type: functional
[2] = Drug recovery in Sprague-Dawley rat feces at 0.1 mg/kg administered via oral gavage measured after 72 hrs by LC/MS/MS analysis; assay type: ADME, organism-based; conditions: faeces, read-out: Drug recovery
[3] = AUC in Sprague-Dawley rat at 2.2 mg/kg administered via oral gavage measured up to 4 hrs by LC/MS/MS analysis; assay type: ADME, organism-based; set-up: time < 4 hr, dose 2.2 mg/kg, route oral; conditions: in vivo
[4] = Cmax in Sprague-Dawley rat at 2.2 mg/kg administered via oral gavage measured up to 4 hrs by LC/MS/MS analysis; assay type: ADME, organism-based; set-up: dose 2.2 mg/kg, route oral; conditions: in vivo
[5] = molecular target: Sodium/hydrogen exchanger 1 (Homo sapiens, UniProt P19634); test: Inhibition of NHE-1 (unknown origin)
[6] = molecular target: T1, Sodium/hydrogen exchanger 3 (Homo sapiens, UniProt P48764); test: Inhibition of NHE-3 (unknown origin)
T1 sequence (P48764 whole entry): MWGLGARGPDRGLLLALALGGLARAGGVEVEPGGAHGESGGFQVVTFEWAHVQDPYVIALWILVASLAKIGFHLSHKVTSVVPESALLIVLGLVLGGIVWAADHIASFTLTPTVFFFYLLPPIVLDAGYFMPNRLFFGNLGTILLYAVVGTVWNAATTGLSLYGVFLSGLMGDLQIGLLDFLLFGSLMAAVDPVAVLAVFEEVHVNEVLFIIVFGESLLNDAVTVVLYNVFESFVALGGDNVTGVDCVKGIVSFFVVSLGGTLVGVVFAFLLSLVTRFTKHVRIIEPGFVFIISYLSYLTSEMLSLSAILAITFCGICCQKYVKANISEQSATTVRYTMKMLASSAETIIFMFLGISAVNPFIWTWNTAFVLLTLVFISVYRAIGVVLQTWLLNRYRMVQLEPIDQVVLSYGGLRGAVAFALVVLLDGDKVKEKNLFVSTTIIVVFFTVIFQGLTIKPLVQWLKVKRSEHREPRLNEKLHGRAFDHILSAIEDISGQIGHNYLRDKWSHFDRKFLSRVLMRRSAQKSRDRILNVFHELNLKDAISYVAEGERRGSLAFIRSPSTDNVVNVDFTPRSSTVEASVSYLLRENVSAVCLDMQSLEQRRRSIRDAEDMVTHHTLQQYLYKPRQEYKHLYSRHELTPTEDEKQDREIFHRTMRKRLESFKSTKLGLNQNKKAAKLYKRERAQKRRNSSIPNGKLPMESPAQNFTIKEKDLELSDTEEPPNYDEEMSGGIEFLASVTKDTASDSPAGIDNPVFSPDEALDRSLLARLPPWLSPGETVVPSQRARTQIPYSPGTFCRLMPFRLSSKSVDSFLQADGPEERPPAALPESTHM

[7] = molecular target: T2, Sodium/hydrogen exchanger 2 (Homo sapiens, UniProt Q9UBY0); test: Inhibition of NHE-2 (unknown origin)
T2 sequence (Q9UBY0 whole entry): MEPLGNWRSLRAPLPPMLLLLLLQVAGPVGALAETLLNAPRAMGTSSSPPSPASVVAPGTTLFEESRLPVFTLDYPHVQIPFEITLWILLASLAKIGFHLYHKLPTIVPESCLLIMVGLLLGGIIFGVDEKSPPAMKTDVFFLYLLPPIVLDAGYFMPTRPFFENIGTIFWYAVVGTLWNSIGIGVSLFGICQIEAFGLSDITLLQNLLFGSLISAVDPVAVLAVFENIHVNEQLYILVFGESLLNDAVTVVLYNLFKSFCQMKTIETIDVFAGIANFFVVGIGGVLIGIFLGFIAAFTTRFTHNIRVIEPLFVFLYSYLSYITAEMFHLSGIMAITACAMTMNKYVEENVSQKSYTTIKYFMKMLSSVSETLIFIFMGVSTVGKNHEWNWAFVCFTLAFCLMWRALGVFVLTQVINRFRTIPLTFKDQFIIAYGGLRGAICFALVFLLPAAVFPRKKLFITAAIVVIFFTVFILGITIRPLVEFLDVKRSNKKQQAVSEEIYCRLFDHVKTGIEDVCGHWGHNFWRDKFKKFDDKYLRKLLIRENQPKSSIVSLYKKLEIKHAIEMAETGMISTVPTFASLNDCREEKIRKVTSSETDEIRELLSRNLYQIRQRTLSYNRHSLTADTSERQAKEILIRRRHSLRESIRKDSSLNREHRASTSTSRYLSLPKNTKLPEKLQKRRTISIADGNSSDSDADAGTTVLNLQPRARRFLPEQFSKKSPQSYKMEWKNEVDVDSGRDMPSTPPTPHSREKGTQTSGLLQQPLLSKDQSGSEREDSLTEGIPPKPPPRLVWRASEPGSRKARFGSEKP

[8] = AUC in Sprague-Dawley rat at 28 mg/kg administered via oral gavage measured up to 4 hrs by LC/MS/MS analysis; assay type: ADME, organism-based; set-up: time < 4 hr, dose 28 mg/kg, route oral; conditions: in vivo
[9] = Cmax in Sprague-Dawley rat at 28 mg/kg administered via oral gavage measured up to 4 hrs by LC/MS/MS analysis; assay type: ADME, organism-based; set-up: dose 28 mg/kg, route oral; conditions: in vivo
Rattus norvegicus [10] = test: Decrease in urinary sodium level in Sprague-Dawley rat administered via oral gavage measured after 16 hrs by ion chromatographic analysis; assay type: functional
[11] = molecular target: T3, Sodium/hydrogen exchanger 5 (Homo sapiens, UniProt Q14940); test: Inhibition of NHE-5 (unknown origin)
T3 sequence (Q14940 whole entry): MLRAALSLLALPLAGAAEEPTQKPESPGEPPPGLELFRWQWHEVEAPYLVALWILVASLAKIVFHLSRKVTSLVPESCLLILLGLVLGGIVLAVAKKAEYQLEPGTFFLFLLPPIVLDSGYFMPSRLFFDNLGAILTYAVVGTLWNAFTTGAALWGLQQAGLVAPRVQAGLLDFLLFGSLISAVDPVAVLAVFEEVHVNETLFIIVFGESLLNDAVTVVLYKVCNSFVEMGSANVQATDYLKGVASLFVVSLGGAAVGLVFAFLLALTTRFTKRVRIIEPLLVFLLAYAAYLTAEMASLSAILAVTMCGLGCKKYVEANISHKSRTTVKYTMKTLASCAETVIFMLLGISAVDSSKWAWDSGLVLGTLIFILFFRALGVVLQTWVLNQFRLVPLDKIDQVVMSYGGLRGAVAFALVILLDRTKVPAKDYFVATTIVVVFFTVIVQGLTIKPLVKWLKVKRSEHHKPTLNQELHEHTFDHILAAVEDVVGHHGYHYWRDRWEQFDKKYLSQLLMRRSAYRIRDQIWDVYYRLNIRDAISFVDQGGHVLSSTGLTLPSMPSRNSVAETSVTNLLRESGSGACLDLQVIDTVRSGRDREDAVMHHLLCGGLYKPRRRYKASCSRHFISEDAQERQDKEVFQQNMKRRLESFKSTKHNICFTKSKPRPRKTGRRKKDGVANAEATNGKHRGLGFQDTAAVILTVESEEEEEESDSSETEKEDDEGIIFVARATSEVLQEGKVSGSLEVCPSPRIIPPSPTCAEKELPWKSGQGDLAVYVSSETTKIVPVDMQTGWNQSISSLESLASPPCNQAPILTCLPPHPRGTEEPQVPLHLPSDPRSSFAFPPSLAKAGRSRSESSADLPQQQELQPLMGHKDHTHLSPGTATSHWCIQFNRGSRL

Rattus norvegicus [12] = test: Increase in fecal water content in Sprague-Dawley rat administered via oral gavage measured after 16 hrs; assay type: functional

Sodium/hydrogen exchanger 1, sequence (P19634 whole entry): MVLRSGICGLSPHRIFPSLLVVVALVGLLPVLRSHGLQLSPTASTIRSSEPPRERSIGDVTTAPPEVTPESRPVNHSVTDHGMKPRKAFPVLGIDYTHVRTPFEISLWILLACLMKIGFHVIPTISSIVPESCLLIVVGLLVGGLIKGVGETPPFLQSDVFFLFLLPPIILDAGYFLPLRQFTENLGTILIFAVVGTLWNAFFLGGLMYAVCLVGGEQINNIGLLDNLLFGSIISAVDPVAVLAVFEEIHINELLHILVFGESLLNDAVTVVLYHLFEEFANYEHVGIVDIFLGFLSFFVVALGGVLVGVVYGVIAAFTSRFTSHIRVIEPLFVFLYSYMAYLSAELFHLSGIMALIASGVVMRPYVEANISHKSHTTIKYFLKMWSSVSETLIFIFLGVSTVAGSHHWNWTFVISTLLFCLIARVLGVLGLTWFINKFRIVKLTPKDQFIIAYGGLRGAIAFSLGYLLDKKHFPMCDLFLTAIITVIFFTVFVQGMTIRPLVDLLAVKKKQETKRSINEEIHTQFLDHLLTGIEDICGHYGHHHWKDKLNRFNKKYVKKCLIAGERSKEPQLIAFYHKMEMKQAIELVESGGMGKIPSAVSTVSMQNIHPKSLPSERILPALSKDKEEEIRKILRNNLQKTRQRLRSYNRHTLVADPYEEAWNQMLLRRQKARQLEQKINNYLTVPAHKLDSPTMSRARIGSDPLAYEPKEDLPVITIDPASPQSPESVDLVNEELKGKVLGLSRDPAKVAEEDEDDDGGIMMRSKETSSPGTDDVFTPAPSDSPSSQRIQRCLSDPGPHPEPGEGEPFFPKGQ

CN1Cc2c(Cl)cc(Cl)cc2C(c2cccc(S(=O)(=O)NCCOCCOCCNC(=O)c3ccc(C(=O)NCCOCCOCCNS(=O)(=O)c4cccc(C5CN(C)Cc6c(Cl)cc(Cl)cc65)c4)cc3)c2)C1 (stereo not given)
Activity (Rattus norvegicus [1]): 117%

CN1Cc2c(Cl)cc(Cl)cc2C(c2cccc(S(=O)(=O)NCCOCCOCCOCCNC(=O)C(O)C(O)C(=O)NCCOCCOCCOCCNS(=O)(=O)c3cccc(C4CN(C)Cc5c(Cl)cc(Cl)cc54)c3)c2)C1 (single isomer, unassigned)
Activity (Rattus norvegicus [1]): 125%

CN1Cc2c(Cl)cc(Cl)cc2C(c2ccc(S(=O)(=O)NCCOCCOCCNC(=O)CCC(=O)NCCOCCOCCNS(=O)(=O)c3ccc(C4CN(C)Cc5c(Cl)cc(Cl)cc54)cc3)cc2)C1 (stereo not given)
Activity (Rattus norvegicus [1]): 121%

CN1Cc2c(Cl)cc(Cl)cc2[C@H](c2cccc(S(=O)(=O)NCCOCCOCCNC(=O)NCCCCNC(=O)NCCOCCOCCNS(=O)(=O)c3cccc([C@@H]4CN(C)Cc5c(Cl)cc(Cl)cc54)c3)c2)C1.Cl.Cl (single isomer, unassigned) [TENAPANOR HYDROCHLORIDE]
dose excreted at 72 h [2]: 90.5 to 93.8%
Activity (Rattus norvegicus [1]): 134%

CN1Cc2c(Cl)cc(Cl)cc2C(c2ccc(S(=O)(=O)NCCOCCOCCNC(=O)Nc3ccc(NC(=O)NCCOCCOCCNS(=O)(=O)c4ccc(C5CN(C)Cc6c(Cl)cc(Cl)cc65)cc4)cc3)cc2)C1 (stereo not given)
Activity (Rattus norvegicus [1]): 114%

C/C(=C\c1cc(F)c(Oc2ccc(S(=O)(=O)NCCP(=O)(O)O)cc2)c(F)c1)C(=O)N=C(N)N
AUC at 4 h [3]: 23 ng·h/mL
Cmax [4]: 9 ng/mL

Cc1ccc(F)cc1[C@@H]1C/C(=N\N=C(N)N)c2c(C)cccc2C1
IC50 [5]: 1 nM
IC50 [6]: 11000 nM
IC50 [7]: 430 nM

CN1Cc2c(Cl)cc(Cl)cc2C(c2cccc(S(=O)(=O)NCCOCCOCCNC(=O)NCCCCNC(=O)NCCOCCOCCNS(=O)(=O)c3cccc(C4CN(C)Cc5c(Cl)cc(Cl)cc54)c3)c2)C1 (stereo not given)
Activity (Rattus norvegicus [1]): 128%

CN1Cc2c(Cl)cc(Cl)cc2C(c2ccc(S(=O)(=O)NCCOCCOCCNC(=O)C(=O)NCCOCCOCCNS(=O)(=O)c3ccc(C4CN(C)Cc5c(Cl)cc(Cl)cc54)cc3)cc2)C1 (stereo not given)
AUC at 4 h [8]: 6 ng·h/mL
Cmax [9]: 8 ng/mL

CN1Cc2c(Cl)cc(Cl)cc2C(c2cccc(S(=O)(=O)NCCOCCOCCNC(=O)Nc3ccc(NC(=O)NCCOCCOCCNS(=O)(=O)c4cccc(C5CN(C)Cc6c(Cl)cc(Cl)cc65)c4)cc3)c2)C1 (stereo not given)
Activity (Rattus norvegicus [1]): 120%

CN1Cc2c(Cl)cc(Cl)cc2C(c2cccc(NC(=O)N[C@@H](CC(=O)O)C(=O)O)c2)C1 (stereo not given in full)
AUC at 4 h [3]: 5 ng·h/mL
Cmax [4]: 2.4 ng/mL

CN1Cc2c(Cl)cc(Cl)cc2[C@H](c2cccc(S(=O)(=O)NCCOCCOCCOCCNC(=O)NCCCCNC(=O)NCCOCCOCCOCCNS(=O)(=O)c3cccc([C@@H]4CN(C)Cc5c(Cl)cc(Cl)cc54)c3)c2)C1 (single isomer, unassigned)
Activity (Rattus norvegicus [10]): Dose-dependent effect
Activity (Rattus norvegicus [1]): 118%

CN1Cc2c(Cl)cc(Cl)cc2[C@H](c2ccc(S(=O)(=O)NCCOCCOCCNC(=O)COCC(=O)NCCOCCOCCNS(=O)(=O)c3ccc([C@@H]4CN(C)Cc5c(Cl)cc(Cl)cc54)cc3)cc2)C1.Cl.Cl (single isomer, unassigned)
Activity (Rattus norvegicus [10]): Dose-dependent effect
Activity (Rattus norvegicus [1]): 127%

CN1Cc2c(Cl)cc(Cl)cc2[C@H](c2ccc(S(=O)(=O)NCCOCCOCCOCCNC(=O)NCCOCCOCCOCCNS(=O)(=O)c3ccc([C@@H]4CN(C)Cc5c(Cl)cc(Cl)cc54)cc3)cc2)C1 (mixture of isomers)
Activity (Rattus norvegicus [1]): 120%

C/C(=C\c1cccc(/C=C(\C)C(=O)NC(=N)N)c1)C(=O)N=C(N)N
IC50 [5]: 2 nM
IC50 [6]: 1320 nM
IC50 [7]: 70 nM

CN1Cc2c(Cl)cc(Cl)cc2C(c2ccc(S(=O)(=O)NCCOCCOCCNC(=O)COCC(=O)NCCOCCOCCNS(=O)(=O)c3ccc(C4CN(C)Cc5c(Cl)cc(Cl)cc54)cc3)cc2)C1 (stereo not given)
Activity (Rattus norvegicus [1]): 118%

CN1Cc2c(Cl)cc(Cl)cc2[C@H](c2cccc(S(=O)(=O)NCCOCCOCCNC(=O)Nc3ccc(NC(=O)NCCOCCOCCNS(=O)(=O)c4cccc([C@@H]5CN(C)Cc6c(Cl)cc(Cl)cc65)c4)cc3)c2)C1.Cl.Cl (single isomer, unassigned)
dose excreted at 72 h [2]: 75.8 to 104%
Activity (Rattus norvegicus [1]): 130%

CN1Cc2c(Cl)cc(Cl)cc2[C@H](c2ccc(S(=O)(=O)NCCOCCOCCNC(=O)CCC(=O)NCCOCCOCCNS(=O)(=O)c3ccc([C@@H]4CN(C)Cc5c(Cl)cc(Cl)cc54)cc3)cc2)C1.Cl.Cl (single isomer, unassigned)
Activity (Rattus norvegicus [1]): 124%

Cc1ccc(F)cc1[C@H]1C/C(=N\N=C(N)N)c2c(C)cccc2C1
IC50 [5]: 35000 nM
IC50 [6]: > 30000 nM
IC50 [7]: 310 nM

CN1Cc2c(Cl)cc(Cl)cc2C(c2cccc(NCCOCCOCCOCCNC(=O)C(O)C(O)C(=O)NCCOCCOCCOCCNc3cccc(C4CN(C)Cc5c(Cl)cc(Cl)cc54)c3)c2)C1 (stereo not given)
AUC at 4 h [8]: 19 ng·h/mL
Cmax [9]: 23 ng/mL

CC1(C)[C@H](C(=O)N=C(N)N)[C@H]1c1cccc2c1CCO2
IC50 [6]: > 30000 nM
IC50 [7]: 1800 nM

Cc1cc(-n2cccc2)c(S(C)(=O)=O)cc1C(=O)NC(=N)N [ENIPORIDE]
IC50 [11]: > 30000 nM
IC50 [5]: 5 to 380 nM
IC50 [6]: 100000 to 460000 nM
IC50 [7]: 2000 to 17000 nM

CC(C)c1ccc(C(=O)NC(=N)N)cc1S(C)(=O)=O [CARIPORIDE]
IC50 [11]: > 30000 nM
IC50 [5]: 30 to 3400 nM
IC50 [6]: 1000 to 100000 nM
IC50 [7]: 4300 to 62000 nM

CN1Cc2c(Cl)cc(Cl)cc2C(c2cccc(S(=O)(=O)NCCOCCOCCOCCNC(=O)C(O)C(O)C(=O)NCCOCCOCCOCCNS(=O)(=O)c3cccc(C4CN(C)Cc5c(Cl)cc(Cl)cc54)c3)c2)C1 (stereo not given)
Activity (Rattus norvegicus [12]): Dose-dependent effect
